Patent US4939124A, “Treatment and diagnosis of dementia” (Laboratorios Serono S.A., priority 1988, dated 1990)

What was measured:
[1] = test system: controls and SDAT subjects; experiment: Electroencephalographic monitoring during the GRF test; type: in vivo, human; conditions: for EEG amplitude, sequential analysis (increase) / EEG frequency, sequential analysis (fall): 15 to 45 minutes after injection
Procedure: Simultaneously to the performance of the GRF test, electroencephalograhic and cardiovascular monitorization of the subjects were carried out. Twenty-four hours prior to the GRF test, and 3, 12, 24 and 48 hours after testing, the DRS, MMS, BCRS, and FAST tests were performed to evaluate mental performance and behavior. Additional monitoring of GRF effects was done by global physician assessment and evaluation of the Mihara Nursing Scale (MNS). This test was developed to be used as a non-cognitive parametric indicator involving several items, including quantification of food intake, locomotion, social interaction, and complementary laboratory data.
The results were analyzed statistically by the Student's test, analysis of variance (ANOVA) and the Mann-Whitney test using a NEC PC-9801VM2 computer.

Male Wistar rats [2] = experiment: Locomotor activity in open field paradigm (OUCEM-86), i.c.v. injection; type: in vivo
From the text: (§1) To clarify whether SS and GRF display at the central level the same antagonistic effect that they have at the pituitary level, the effects of these neuropeptides on several behavioral parameters have been studied using the OUCEM-86^TM (Osaka University Computerized Electronic Maze). The system is integrated by the following components: a Programmable Electronic Platform (PEP) (620×620 mm) equipped with 48 photo beam sensors (OPX-T30); a Programming Panel (PP) (Model BECM-0064) for paradigm stimulation; a Shock Generator Scrambler (SGS) (Model BSG-1065) to apply continuous or discontinuous electric current to the PEP; a Control Station (CS) (BEC 16-Bio Computer Control Station BCS-1105; Bio Medica, Ltd., Osaka) which processes inputs/outputs as an interface device to automatically computerize behavioral parameters; and a Computer System (NEC PC-9801 VM2) with 1 megabyte Random Access Memory (RAM) for data processing and experimental setting.
(§2) Male Wistar rats (175-200 g) (N =5-8 rats/group) received intracerebroventricular (i.c.v.) injections of GRF1-44 and SS-14 over a range of 0.1 to 10 mcg. Then the rats were studied in the OUCEM under two different paradigms (e.g., open field and maze paradigms).
The animals were placed in the PEP for 30-minute periods and locomotor activity (LA) was automatically recorded in an open field paradigm. Total LA is represented as total inputs (I/O) including movements in four-footed position (4F) and in two-footed position (2F), grooming, rearing and jumping activity, while linear (horizontal) movements (4F) are represented as pulses per minute (pm) or cm^2 /min

[3] = test system: female in-patients with primary degenerative dementia (Alzheimer like); experiment: 8-day GRF (1-29) NH2 therapy, MMS Folstein test and Crichton's scale; type: in vivo, human; conditions: for MMS Folstein and Crichton's scale scores and clinical findings: 8 days, 12 hours, 24 hours, 7 days
Procedure: Twenty female in-patients with primary degenerative dementia (Alzheimer like) aged 67-84 years were divided in two therapy-groups with GRF (1-29) NH2. All patients were treated with this product for 8 days with either of the following schedules: (I) 250 mcg s.c. twice daily (II) 50 mcg i.v. twice daily Therapy was started after a 15-day wash-out period for psychotropic-drugs. Evolution of patients was assessed using the MMS Folstein test and Chrichton's scale test at 12 hours, 24 hours and 7 days after starting with GRF. The statistical evaluation was made using Friedman test with a risk level p<0,01 (highly significant differences).

Male Wistar rats [4] = experiment: Locomotor activity and learning in maze paradigm (escape from 1.5 mA shock area), i.c.v. injection; type: in vivo; conditions: GRF1-44 5 mcg i.c.v., 30 minutes; control 17.12±5.42 pm
Male Wistar rats [5] = experiment: as above; type: in vivo
Procedure: The animals had to learn to escape from the shock area in order to avoid a continuous 1.5 mA electric shock. Experimental time --30 minutes.
The rats were treated intracerebroventricularly with SS-14 (1 mcg) and GRF1-44 (1 mcg) and their behavior was automatically recorded by computer using the maze paradigm shown in FIG. 1. p/t denotes pulses per time unit (minute). Locomotor activity was quantified in pulses per minute or cm^2 /min. Total inputs (I/O) in neutral position (white bars) and shock position (black bars) denote how many times the animals enter neutral and shock areas. The N/S ratio results from dividing I/O in neutral position by I/O in shock position and is interpreted as an index of learning in the 30-minute experimental period. The positional time (seconds) represents how long the animals stay in neutral (white bars) or shock (black bars) areas. N-sp and S-sp (in seconds) indicate the time-latency per movement or input in neutral (white bars) and shock (black bars) areas, respectively.
as §1, §2
The amount of inputs (I/O) induced by SS was 103.5±29.5 (control =216.25±55.19, t=8.49, p<0.005) in the neutral area (NA) and 77.14±13.5 I/O in the shock area (SA) (control =298±40, t=1.26, n.s.). GRF generated 459.35±32.5 I/O in NA (t=18.13, p<0.005) and 340.5±63.5 I/O in SA (t=9.07, p<0.005) (FIGS. 1C,3). The NA/SA (N/S) ratios for control, SS- and GRF-treated rats were 0.72, 1.33, and 1.35, respectively (FIG. 2).

For growth hormone releasing factor [GRF], the “EEG amplitude, sequential analysis (increase)” value ([1]; SDAT patients) was 52.5±9.89 uV, the “EEG frequency, sequential analysis (fall)” value ([1]; SDAT patients) was 7.05±0.90 Hz and the “EEG basic rhythm frequency, global evaluation after testing” value ([1]; SDAT, prior to GRF test 8.08±0.67 Hz) was 7.46±0.53 Hz. For the same substance, the “EEG basic rhythm amplitude, global evaluation after testing” value ([1]; SDAT, prior to GRF test 40.80±6.06 uV) was 43.69±5.12 uV, the “EEG amplitude, sequential analysis (increase)” value ([1]; control subjects) was 55.60±6.40 uV and the “EEG frequency, sequential analysis (fall)” value ([1]; control subjects) was 8.75±0.25 Hz. The “EEG basic rhythm frequency, global evaluation after testing” value ([1]; controls, prior to GRF test 9.27±0.11 Hz) was 9.05±0.12 Hz, the “EEG basic rhythm amplitude, global evaluation after testing” value ([1]; controls, prior to GRF test 47.36±3.36 uV) was 49.67±5.75 uV and the “locomotor activity (LA), open field” value (Male Wistar rats [2]; 1 mcg i.c.v. (SS-14 / GRF1-44), 30-minute period, control 31.16±6.90 pm) was 47.60±5.35 pm. For the same substance, the “locomotor activity (LA), open field” value (Male Wistar rats [2]; GRF1-44 1 mcg i.c.v., control 1122±248 cm^2 /min) was 1713.6±69.5 cm^2 /min, the “qualitative behavioral change, open field” value (Male Wistar rats [2]; GRF 1 mcg i.c.v.) was “hyperkinetic syndrome characterized by compulsive, uncontrolled movements” and the “comparison of i.v. and s.c. groups (increase in scores and clinical findings)” value ([3]; GRF (1-29) NH2 50 mcg i.v. vs 250 mcg s.c. twice daily) was “more important in the group with i.v. GRF administration than in the one with s.c. administration”. The persistence of effect ([3]; GRF (1-29) NH2, both groups) was “remains significant over the whole 7 days of treatment”, the “start of effect after administration” value ([3]; GRF (1-29) NH2, both groups) was 12 h and the “sphincter control and general psychomotricity after discontinuation” value ([3]; GRF (1-29) NH2 administration discontinued) was “returned to pretreatment situation”. For the same substance, the “sphincter control and general psychomotricity (nurse's report)” value ([3]; during treatment with GRF (1-29) NH2) was “improvement”, the “MMS Folstein and Crichton's scale scores and clinical findings” value ([3]; group I: GRF (1-29) NH2 250 mcg s.c. twice daily) was “significant increase” and the “MMS Folstein and Crichton's scale scores and clinical findings” value ([3]; group II: GRF (1-29) NH2 50 mcg i.v. twice daily) was “significant increase”. For the same substance, the “locomotor activity (LA), maze paradigm” value (Male Wistar rats [4]) was 90.2±8.4 pm, the “locomotor activity (LA), maze paradigm” value (Male Wistar rats [5]; 1 mcg i.c.v., 30 minutes, control 17.12±5.42 pm) was 26.66±3.15 pm and the “NA/SA (N/S) ratio (index of learning)” value (Male Wistar rats [5]; 1 mcg i.c.v., control 0.72) was 1.35. For the same substance, the “amount of inputs (I/O) in the neutral area (NA)” value (Male Wistar rats [5]; 1 mcg i.c.v., control 216.25±55.19) was 459.35±32.5 I/O, the “amount of inputs (I/O) in the shock area (SA)” value (Male Wistar rats [5]; 1 mcg i.c.v., control 298±40) was 340.5±63.5 I/O and the “I/O rate and positional time in SA” value (Male Wistar rats [5]; GRF i.c.v., hyperkinetic syndrome, vs control group) was “significantly higher than in the control group”. For the same substance, the “learning abilities (N/S ratio as index)” value (Male Wistar rats [5]; doses of approximately 6.10×10^-10 mol (SS) and 1.98×10^-10 mol (GRF), i.c.v.) was “improve learning abilities”.
